Consider 24 molecules from US20250197406A1, “INDAZOLES AS HEMATOPOIETIC PROGENITOR KINASE 1 (HPK1) INHIBITORS AND METHODS FOR USING SAME” (1ST Biotherapeutics, Inc., priority 2022, published 2025).

Bounds are passed on as bounds.

Sequence of recombinant human HPK1 (Q92918 whole entry): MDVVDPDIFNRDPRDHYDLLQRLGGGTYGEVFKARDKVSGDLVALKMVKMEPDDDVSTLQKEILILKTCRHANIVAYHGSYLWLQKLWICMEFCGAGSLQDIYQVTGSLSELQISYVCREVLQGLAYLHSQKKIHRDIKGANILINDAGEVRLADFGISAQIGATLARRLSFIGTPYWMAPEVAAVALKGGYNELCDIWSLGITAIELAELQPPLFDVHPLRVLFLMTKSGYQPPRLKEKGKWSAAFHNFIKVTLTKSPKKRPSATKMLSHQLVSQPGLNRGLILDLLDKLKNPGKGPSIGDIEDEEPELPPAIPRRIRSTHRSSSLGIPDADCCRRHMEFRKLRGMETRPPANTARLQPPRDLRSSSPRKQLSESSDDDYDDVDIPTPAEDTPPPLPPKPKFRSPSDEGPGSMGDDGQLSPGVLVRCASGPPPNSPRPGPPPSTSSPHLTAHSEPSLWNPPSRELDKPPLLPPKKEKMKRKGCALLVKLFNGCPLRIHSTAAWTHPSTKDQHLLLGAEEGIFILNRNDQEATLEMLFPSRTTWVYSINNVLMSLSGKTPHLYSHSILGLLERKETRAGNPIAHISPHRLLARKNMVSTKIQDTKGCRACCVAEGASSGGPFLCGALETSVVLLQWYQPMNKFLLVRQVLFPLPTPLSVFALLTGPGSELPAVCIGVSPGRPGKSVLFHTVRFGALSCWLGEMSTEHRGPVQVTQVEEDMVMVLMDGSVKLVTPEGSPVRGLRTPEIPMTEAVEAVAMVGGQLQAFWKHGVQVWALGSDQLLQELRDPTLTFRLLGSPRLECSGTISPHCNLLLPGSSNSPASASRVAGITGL

The assay addresses recombinant human HPK1 (Homo sapiens (Human), UniProt Q92918). As to the kind of experiment: HPK1 kinase assay (Promega ADP-Glo kinase assay). It counts as biochemical. The note with it: In vitro activity against HPK1, 5 ng HPK1, MBP substrate, ATP 25 μM, 30° C. 40 minutes. The method, then:
HPK1 kinase activity was measured by Promega's ADP-Glo™ kinase assay. In this assay, 5 ng of recombinant human HPK1 (signalchem) is incubated with 5 μL of compounds (0.5% DMSO), 5 μL of MBP (0.5 μg/μl) and 5 μL of ATP (25 μM) in buffer (40 mM Tris, 7.5; 20 mM MgCl2; 0.1 mg/ml BSA; 50 μM DTT.). The assay was started by incubating the reaction mixture in a 96-well plate at 30° C. for 40 minutes. After the incubation, 25 μL ADP-Glo reagent was added and the reaction was incubated at room temperature for 40-min to stop the reaction and degrade residual ATP. The ADP product was then converted to ATP by adding 50 μL per well of detection reagent. Luminescence was detected after 30-min room temperature incubation with the Molecular device I3X plate reader. The IC50 values were calculated from a series of percent inhibition values determined at a range of inhibitor concentration using software routines as implemented in the GraphPad Prism 7 software and SigmaPlot13.0.
A general note: ADP-Glo first removes unused ATP, then detects ADP through luciferase.
By IC50 is commonly meant the concentration at which inhibition is half-maximal. Consider `Cc1c(F)c(C(O)C2CC2)c2[nH]ncc2c1-c1cn2cc(NC(=O)[C@@H]3C[C@@H]3F)nc2cn1` (stereo partly drawn) [Example 1, (1S,2S)-N-(6-(7-(cyclopropyl(hydroxy)methyl)-6-fluoro-5-methyl-1H-indazol-4-yl)imidazo[1,2-a]pyrazin-2-yl)-2-fluorocyclopropane-1-carboxamide], for which the IC50 is less than 0.1 µM.

For `COC(c1c(F)c(C)c(-c2cn3cc(NC(=O)[C@@H]4C[C@@H]4F)nc3cn2)c2cn[nH]c12)C1CC1` (stereo partly drawn) [Example 2, (1S,2S)-N-(6-(7-(cyclopropyl(methoxy)methyl)-6-fluoro-5-methyl-1H-indazol-4-yl)imidazo[1,2-a]pyrazin-2-yl)-2-fluorocyclopropane-1-carboxamide], the IC50 is less than 0.1 µM.

As to `CCOC(C)c1c(F)c(C)c(-c2cn3cc(NC(=O)[C@@H]4C[C@@H]4F)nc3cn2)c2cn[nH]c12` (stereo partly drawn) [Example 3, (1S,2S)-N-(6-(7-(1-ethoxyethyl)-6-fluoro-5-methyl-1H-indazol-4-yl)imidazo[1,2-a]pyrazin-2-yl)-2-fluorocyclopropane-1-carboxamide], the IC50 lay within 0.101 to 0.5 µM.

For the molecule `COCC(C)c1c(F)c(C)c(-c2cn3cc(NC(=O)[C@@H]4C[C@@H]4F)nc3cn2)c2cn[nH]c12` (stereo partly drawn) [Example 4, (1S,2S)-2-fluoro-N-(6-(6-fluoro-7-(1-methoxypropan-2-yl)-5-methyl-1H-indazol-4-yl)imidazo[1,2-a]pyrazin-2-yl)cyclopropane-1-carboxamide], the IC50 was less than 0.1 µM.

Consider `Cc1c(F)c(C(C)C(F)F)c2[nH]ncc2c1-c1cn2cc(NC(=O)[C@@H]3C[C@@H]3F)nc2cn1` (stereo partly drawn) [Example 5, (1S,2S)-N-(6-(7-(1,1-difluoropropan-2-yl)-6-fluoro-5-methyl-1H-indazol-4-yl)imidazo[1,2-a]pyrazin-2-yl)-2-fluorocyclopropane-1-carboxamide], for which the IC50 is less than 0.1 µM.

Regarding `Cc1c(F)c(C2CCOC2)c2[nH]ncc2c1-c1cn2cc(NC(=O)[C@@H]3C[C@@H]3F)nc2cn1` (stereo partly drawn) [Example 6, (1S,2S)-2-fluoro-N-(6-(6-fluoro-5-methyl-7-(tetrahydrofuran-3-yl)-1H-indazol-4-yl)imidazo[1,2-a]pyrazin-2-yl)cyclopropane-1-carboxamide], the IC50 was less than 0.1 µM.

With `Cc1c(F)c(C2=CC(=O)CC2)c2[nH]ncc2c1-c1cn2cc(NC(=O)[C@@H]3C[C@@H]3F)nc2cn1` [Example 7, (1S,2S)-2-fluoro-N-(6-(6-fluoro-5-methyl-7-(3-oxocyclopent-1-en-1-yl)-1H-indazol-4-yl)imidazo[1,2-a]pyrazin-2-yl)cyclopropane-1-carboxamide], the IC50 was in the range of 0.101 to 0.5 µM.

For the molecule `Cc1c(F)c(C(C)CO)c2[nH]ncc2c1-c1cn2cc(NC(=O)[C@@H]3C[C@@H]3F)nc2cn1` (stereo partly drawn) [Example 8, (1S,2S)-2-fluoro-N-(6-(6-fluoro-7-(1-hydroxypropan-2-yl)-5-methyl-1H-indazol-4-yl)imidazo[1,2-a]pyrazin-2-yl)cyclopropane-1-carboxamide], the IC50 is less than 0.1 µM.

In the case of `Cc1c(F)c(C2CCCC2O)c2[nH]ncc2c1-c1cn2cc(NC(=O)[C@@H]3C[C@@H]3F)nc2cn1` (stereo partly drawn) [Example 9, (1S,2S)-2-fluoro-N-(6-(6-fluoro-7-(2-hydroxycyclopentyl)-5-methyl-1H-indazol-4-yl)imidazo[1,2-a]pyrazin-2-yl)cyclopropane-1-carboxamide], the IC50 is less than 0.1 µM.

Regarding `CNC(C)c1c(F)c(C)c(-c2cn3cc(NC(=O)[C@@H]4C[C@@H]4F)nc3cn2)c2cn[nH]c12` (stereo partly drawn) [Example 10, (1S,2S)-2-fluoro-N-(6-(6-fluoro-5-methyl-7-(1-(methylamino)ethyl)-1H-indazol-4-yl)imidazo[1,2-a]pyrazin-2-yl)cyclopropane-1-carboxamide], the IC50 was in the range of 0.101 to 0.5 µM.

In the case of `Cc1c(F)c(C2=CCCC2)c2[nH]ncc2c1-c1cn2cc(NC(=O)[C@@H]3C[C@@H]3F)nc2cn1` [Example 11, (1S,2S)-N-(6-(7-(cyclopent-1-en-1-yl)-6-fluoro-5-methyl-1H-indazol-4-yl)imidazo[1,2-a]pyrazin-2-yl)-2-fluorocyclopropane-1-carboxamide], the IC50 is less than 0.1 µM.

For `Cc1c(F)c(C(C)N(C)C)c2[nH]ncc2c1-c1cn2cc(NC(=O)[C@@H]3C[C@@H]3F)nc2cn1` (stereo partly drawn) [Example 12, (1S,2S)-N-(6-(7-(1-(dimethylamino)ethyl)-6-fluoro-5-methyl-1H-indazol-4-yl)imidazo[1,2-a]pyrazin-2-yl)-2-fluorocyclopropane-1-carboxamide], the IC50 lay in the range of 0.501 to 1 µM.

On to `Cc1c(F)c(C(C)CN(C)C)c2[nH]ncc2c1-c1cn2cc(NC(=O)[C@@H]3C[C@@H]3F)nc2cn1` (stereo partly drawn) [Example 13, (1S,2S)-N-(6-(7-(1-(dimethylamino)propan-2-yl)-6-fluoro-5-methyl-1H-indazol-4-yl)imidazo[1,2-a]pyrazin-2-yl)-2-fluorocyclopropane-1-carboxamide], for which the IC50 lay within 0.101 to 0.5 µM.

As for `CC(C)N(c1c(F)c(Cl)c(-c2cn3cc(NC(=O)[C@@H]4C[C@@H]4F)nc3cn2)c2cn[nH]c12)C1OC(C(=O)O)C(O)C(O)C1O` (stereo partly drawn) [Example 14, 6-((5-chloro-6-fluoro-4-(2-((1S,2S)-2-fluorocyclopropane-1-carboxamido)imidazo[1,2-a]pyrazin-6-yl)-1H-indazol-7-yl)(isopropyl)amino)-3,4,5-trihydroxytetrahydro-2H-pyran-2-carboxylic acid], the IC50 was less than 0.1 µM.

For the molecule `Cc1c(F)c(C2=CC(O)CC2)c2[nH]ncc2c1-c1cn2cc(NC(=O)[C@@H]3C[C@@H]3F)nc2cn1` (stereo partly drawn) [Example 15, (1S,2S)-2-fluoro-N-(6-(6-fluoro-7-(3-hydroxycyclopent-1-en-1-yl)-5-methyl-1H-indazol-4-yl)imidazo[1,2-a]pyrazin-2-yl)cyclopropane-1-carboxamide], the IC50 was less than 0.1 µM.

With `COC1CCCC1c1c(F)c(C)c(-c2cn3cc(NC(=O)[C@@H]4C[C@@H]4F)nc3cn2)c2cn[nH]c12` (stereo partly drawn) [Example 16, (1S,2S)-2-fluoro-N-(6-(6-fluoro-7-(2-methoxycyclopentyl)-5-methyl-1H-indazol-4-yl)imidazo[1,2-a]pyrazin-2-yl)cyclopropane-1-carboxamide], the IC50 is less than 0.1 µM.

Turning to `CN(C)c1c(F)c(C(F)F)c(-c2cn3cc(NC(=O)[C@@H]4C[C@@H]4F)nc3cn2)c2cn[nH]c12` [Example 17, (1S,2S)-N-(6-(5-(difluoromethyl)-7-(dimethylamino)-6-fluoro-1H-indazol-4-yl)imidazo[1,2-a]pyrazin-2-yl)-2-fluorocyclopropane-1-carboxamide], the IC50 is less than 0.1 µM.

As to `COC(=O)C1OC(N(c2c(F)c(Cl)c(-c3cn4cc(NC(=O)[C@@H]5C[C@@H]5F)nc4cn3)c3cn[nH]c23)C(C)C)C(OC(C)=O)C(OC(C)=O)C1OC(C)=O` (stereo partly drawn) [Example 18, 2-((5-chloro-6-fluoro-4-(2-((1S,2S)-2-fluorocyclopropane-1-carboxamido)imidazo[1,2-a]pyrazin-6-yl)-1H-indazol-7-yl)(isopropyl)amino)-6-(methoxycarbonyl)tetrahydro-2H-pyran-3,4,5-triyl triacetate], the concentration for half-maximal inhibition (IC50) is 0.101 to 0.5 µM.

On to `O=C(Nc1cn2cc(-c3c(C(F)F)c(F)c(C(O)C4CC4)c4[nH]ncc34)ncc2n1)[C@@H]1C[C@@H]1F` (stereo partly drawn) [Example 19, (1S,2S)-N-(6-(7-(cyclopropyl(hydroxy)methyl)-5-(difluoromethyl)-6-fluoro-1H-indazol-4-yl)imidazo[1,2-a]pyrazin-2-yl)-2-fluorocyclopropane-1-carboxamide], for which the IC50 was less than 0.1 µM.

As to `CC(C)Nc1c(F)c(Cl)c(-c2cn3cc(NC(=O)[C@@H]4C[C@@H]4C(=O)O)nc3cn2)c2cn[nH]c12` [Example 20, (1S,2R)-2-((6-(5-chloro-6-fluoro-7-(isopropylamino)-1H-indazol-4-yl)imidazo[1,2-a]pyrazin-2-yl)carbamoyl)cyclopropane-1-carboxylic acid], the IC50 is less than 0.1 µM.

Consider `Cc1c(F)c(C(C2CC2)N2C(=O)c3ccccc3C2=O)c2[nH]ncc2c1-c1cn2cc(NC(=O)[C@@H]3C[C@@H]3F)nc2cn1` (stereo partly drawn) [Example 21, (1S,2S)-N-(6-(7-(cyclopropyl(1,3-dioxoisoindolin-2-yl)methyl)-6-fluoro-5-methyl-1H-indazol-4-yl)imidazo[1,2-a]pyrazin-2-yl)-2-fluorocyclopropane-1-carboxamid], for which the IC50 is less than 0.1 µM.

As for `Cc1c(F)c(C(C)CN2C(=O)c3ccccc3C2=O)c2[nH]ncc2c1-c1cn2cc(NC(=O)[C@@H]3C[C@@H]3F)nc2cn1` (stereo partly drawn) [Example 22, (1S,2S)-N-(6-(7-(1-(1,3-dioxoisoindolin-2-yl)propan-2-yl)-6-fluoro-5-methyl-1H-indazol-4-yl)imidazo[1,2-a]pyrazin-2-yl)-2-fluorocyclopropane-1-carboxamide], the IC50 was less than 0.1 µM.

As for `Cc1c(F)c(C(N)C2CC2)c2[nH]ncc2c1-c1cn2cc(NC(=O)[C@@H]3C[C@@H]3F)nc2cn1` (stereo partly drawn) [Example 23, (1S,2S)-N-(6-(7-(amino(cyclopropyl)methyl)-6-fluoro-5-methyl-1H-indazol-4-yl)imidazo[1,2-a]pyrazin-2-yl)-2-fluorocyclopropane-1-carboxamide], the IC50 was less than 0.1 µM.

On to `Cc1c(F)c(C(C)CN)c2[nH]ncc2c1-c1cn2cc(NC(=O)[C@@H]3C[C@@H]3F)nc2cn1` (stereo partly drawn) [Example 24, (1S,2S)-N-(6-(7-(1-aminopropan-2-yl)-6-fluoro-5-methyl-1H-indazol-4-yl)imidazo[1,2-a]pyrazin-2-yl)-2-fluorocyclopropane-1-carboxamide], for which the IC50 is less than 0.1 µM.
